Measured values: patent publication US12492173B2, “Herbicidal substituted N-tetrazolyl aryl carboxamides” (Bayer Aktiengesellschaft, priority 2019, dated 2025)

Legend:
Assay type in all cases: in vivo
Cyperus esculentus = assay: Pre-emergence herbicidal action, CYPES; set-up: key: % activity: 100 = plants have died, 0 = like control plants; conditions: comparative experiment, 20 g of a.i./ha
Method in brief: (§1)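 Seeds were covered with sandy loam soil, then received a pre-emergence surface spray of the WP- or EC-formulated compound. After 3 weeks under good greenhouse growth conditions, damage was scored visually in percent.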

Lolium rigidum = assay: Pre-emergence herbicidal action, LOLRI; conditions: dosage 320 g/ha, scored visually after 3 weeks vs untreated controls (100% = plants have died)
From the text: 1. Pre-Emergence Herbicidal Action Against Harmful Plants Seeds of monocotyledonous and dicotyledonous weed plants and crop plants are laid out in sandy loam soil in wood-fiber pots and covered with soil. The compounds of the invention, formulated in the form of wettable powders (WP) or as emulsion concentrates (EC), are then applied to the surface of the covering soil in the form of an aqueous suspension or emulsion at a water application rate equating to 600 to 800 l/ha, with addition of 0.2% wetting agent. After the treatment, the pots are placed in a greenhouse and kept under good growth conditions for the trial plants. The damage to the test plants is scored visually after a test period of 3 weeks by comparison with untreated controls (herbicidal activity in percent (%): 100% activity=the plants have died, 0% activity=like control plants). […] The tables below illustrate, in an exemplary manner, the […] herbicidal action of the compounds according to the invention, the herbicidal activity being stated in percent. [table] In the experiments that follow, herbicidal action of numerous inventive compounds and the known compounds that are structurally closest from D1 (WO 2012/028579 A1) and D2 (WO 2018/202535 A1) were compared under the above-specified conditions by the pre-emergence and post-emergence method. The example numbers given in the tables relate to the compounds disclosed in the respective documents. In addition to the compounds disclosed in D1 and D2, the following compounds V-1 to V-14 that are encompassed by D1 or D2 but are not compounds specified therein were used in the comparative experiments: • V-1: 2-(methylsulfanyl)-3-(methylsulfinyl)-N-(1-methyl-1H-tetrazol-5-yl)-4-(trifluoromethyl)benzamide • V-2: 2-(methylsulfanyl)-3-(methylsulfonyl)-N-(1-methyl-1H-tetrazol-5-yl)-4-(trifluoromethyl)benzamide • V-3: 2,3-bis(ethylsulfanyl)-N-(1-methyl-1H-tetrazol-5-yl)-4-(trifluoromethyl)benzamide • V-4: 2-chloro-3-(ethylsulfanyl)-N-(1-methyl-1H-tetrazol-5-yl)-4-(trifluoromethyl)benzamide • V-5: 2-chloro-4-iodo-3-(methylsulfanyl)-N-(1-methyl-1H-tetrazol-5-yl)benzamide • V-6: 2-chloro-4-iodo-3-(methylsulfinyl)-N-(1-methyl-1H-tetrazol-5-yl)benzamide • V-7: 2-chloro-4-iodo-3-(methylsulfonyl)-N-(1-methyl-1H-tetrazol-5-yl)benzamide • V-8: 2-bromo-3-(methylsulfanyl)-N-(1-methyl-1H-tetrazol-5-yl)-4-(trifluoromethyl)benzamide • V-9: 2-bromo-3-(methylsulfinyl)-N-(1-methyl-1H-tetrazol-5-yl)-4-(trifluoromethyl)benzamide • V-10: 2-bromo-3-(methylsulfonyl)-N-(1-methyl-1H-tetrazol-5-yl)-4-(trifluoromethyl)benzamide • V-11: 2-bromo-3-(ethylsulfanyl)-N-(1-methyl-1H-tetrazol-5-yl)-4-(trifluoromethyl)benzamide • V-12: 2-bromo-3-(ethylsulfinyl)-N-(1-methyl-1H-tetrazol-5-yl)-4-(trifluoromethyl)benzamide • V-13: 2-bromo-3-(ethylsulfonyl)-N-(1-methyl-1-1H-tetrazol-5-yl)-4-(trifluoromethyl)benzamide • V-14: 2-cyclopropyl-3-(ethylsulfanyl)-N-(1-methyl-1H-tetrazol-5-yl)-4-(trifluoromethyl)benzamide Herbicidal Pre-Emergence Action: […]

Alopecurus myosuroides = assay: Pre-emergence herbicidal action, ALOMY; set-up: key: % activity: 100 = plants have died, 0 = like control plants; conditions: comparative experiment, 20 g of a.i./ha
Method in brief: as §1

Hordeum murinum [1] = assay: Post-emergence herbicidal action, HORMU; set-up: key: % herbicidal action: 100 = plants died, 0 = like control; conditions: Dosage 80 g/ha
Procedure: [table] 2. Post-Emergence Herbicidal Action Against Harmful Plants Seeds of monocotyledonous and dicotyledonous weed and crop plants are laid out in sandy loam soil in wood-fiber pots, covered with soil and cultivated in a greenhouse under good growth conditions. 2 to 3 weeks after sowing, the test plants are treated at the one-leaf stage. The compounds of the invention, formulated in the form of wettable powders (WP) or as emulsion concentrates (EC), are then sprayed onto the green parts of the plants in the form of an aqueous suspension or emulsion at a water application rate equating to 600 to 800 l/ha, with addition of 0.2% wetting agent. After the test plants have been left to stand in the greenhouse under optimal growth conditions for about 3 weeks, the action of the preparations is assessed visually in comparison to untreated controls (herbicidal action in percent (%): 100% activity=the plants have died, 0% activity=like control plants). […] The tables below illustrate, in an exemplary manner, the post-emergence herbicidal action of the compounds according to the invention, the herbicidal activity being stated in percent. In the experiments that follow, herbicidal action of numerous inventive compounds and the known compounds that are structurally closest from D1 (WO 2012/028579 A1) and D2 (WO 2018/202535 A1) were compared under the above-specified conditions by the pre-emergence and post-emergence method. The example numbers given in the tables relate to the compounds disclosed in the respective documents. In addition to the compounds disclosed in D1 and D2, the following compounds V-1 to V-14 that are encompassed by D1 or D2 but are not compounds specified therein were used in the comparative experiments: • V-1: 2-(methylsulfanyl)-3-(methylsulfinyl)-N-(1-methyl-1H-tetrazol-5-yl)-4-(trifluoromethyl)benzamide • V-2: 2-(methylsulfanyl)-3-(methylsulfonyl)-N-(1-methyl-1H-tetrazol-5-yl)-4-(trifluoromethyl)benzamide • V-3: 2,3-bis(ethylsulfanyl)-N-(1-methyl-1H-tetrazol-5-yl)-4-(trifluoromethyl)benzamide • V-4: 2-chloro-3-(ethylsulfanyl)-N-(1-methyl-1H-tetrazol-5-yl)-4-(trifluoromethyl)benzamide • V-5: 2-chloro-4-iodo-3-(methylsulfanyl)-N-(1-methyl-1H-tetrazol-5-yl)benzamide • V-6: 2-chloro-4-iodo-3-(methylsulfinyl)-N-(1-methyl-1H-tetrazol-5-yl)benzamide • V-7: 2-chloro-4-iodo-3-(methylsulfonyl)-N-(1-methyl-1H-tetrazol-5-yl)benzamide • V-8: 2-bromo-3-(methylsulfanyl)-N-(1-methyl-1H-tetrazol-5-yl)-4-(trifluoromethyl)benzamide • V-9: 2-bromo-3-(methylsulfinyl)-N-(1-methyl-1H-tetrazol-5-yl)-4-(trifluoromethyl)benzamide • V-10: 2-bromo-3-(methylsulfonyl)-N-(1-methyl-1H-tetrazol-5-yl)-4-(trifluoromethyl)benzamide • V-11: 2-bromo-3-(ethylsulfanyl)-N-(1-methyl-1H-tetrazol-5-yl)-4-(trifluoromethyl)benzamide • V-12: 2-bromo-3-(ethylsulfinyl)-N-(1-methyl-1H-tetrazol-5-yl)-4-(trifluoromethyl)benzamide • V-13: 2-bromo-3-(ethylsulfonyl)-N-(1-methyl-1-1H-tetrazol-5-yl)-4-(trifluoromethyl)benzamide • V-14: 2-cyclopropyl-3-(ethylsulfanyl)-N-(1-methyl-1H-tetrazol-5-yl)-4-(trifluoromethyl)benzamide Herbicidal Pre-Emergence Action: […]

Hordeum murinum [2] = assay: Pre-emergence herbicidal action, HORMU; conditions: dosage 320 g/ha, scored visually after 3 weeks vs untreated controls (100% = plants have died)
Method in brief: as §1

SMILES: Cn1nnnc1NC(=O)c1ccc(C(F)(F)F)c(C[S+](C)[O-])c1Cl (racemic) [Example 1-297]
- Herbicidal action against CYPES (Cyperus esculentus): 100

SMILES: COc1c(C(=O)Nc2nnnn2C)ccc(C(F)(F)F)c1CSC [Example 1-134]
- Herbicidal action against CYPES (Cyperus esculentus): 50

SMILES: Cn1nnnc1NC(=O)c1ccc(C(F)(F)F)c(CS(C)(=O)=O)c1Cl [Example 1-298]
- Herbicidal action against CYPES (Cyperus esculentus): 100

SMILES: C=CCSCc1c(C(F)(F)F)ccc(C(=O)Nc2nnnn2C)c1Cl [Example 1-308]
- herbicidal activity LOLRI (Lolium rigidum): 90%

SMILES: CSCc1c(C(F)(F)F)ccc(C(=O)Nc2nnnn2C)c1Br [Example 1-380]
- Herbicidal action against CYPES (Cyperus esculentus): 60

SMILES: Cn1nnnc1NC(=O)c1ccc(C(F)(F)F)c(C[S+](C)[O-])c1Br (centres unmarked) [Example 1-381]
- Herbicidal action against ALOMY (Alopecurus myosuroides): 50

SMILES: Cn1nnnc1NC(=O)c1ccc(C(F)(F)F)c(CS(C)(=O)=O)c1Br [Example 1-382, 2-bromo-3-[(methylsulfonyl)methyl]-N-(1-methyl-1H-tetrazol-5-yl)-4-(trifluoromethyl)benzamide]
- Herbicidal action against ALOMY (Alopecurus myosuroides): 30

SMILES: CCn1nnnc1NC(=O)c1ccc(C(F)(F)F)c(CS(C)(=O)=O)c1SC [Example 2-163]
- herbicidal action HORMU (Hordeum murinum [1]): 80

SMILES: CCCn1nnnc1NC(=O)c1ccc(C(F)F)c(C[S+]([O-])CC)c1Cl (centres unmarked) [Example 3-324]
- herbicidal activity HORMU (Hordeum murinum [2]): 100%
- herbicidal activity LOLRI (Lolium rigidum): 100%
- herbicidal action HORMU (Hordeum murinum [1]): 80
